# Assay results published in PubChem BioAssay AID1949 (Southern Research Institute, 2009).
# Records with an inconclusive call do not appear. The source made the active and inactive calls. No rule for the calls is given here.
# Test system: M. tuberculosis H37Rv growth inhibition
# Assay: Confirmatory growth inhibition assay against Mycobacterium tuberculosis H37Rv, potency (AID 1949);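 also: bacteria grown 7 days with compound before Alamar blue readout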
row,SMILES,IC50
1,O=C(Cc1ccccc1)NC(=S)Nc1ccc(Oc2ccccc2)cc1,7.61 mg/L
2,CCOC(=O)N1CCN(CCC(=O)c2ccc(Cl)cc2)CC1,2.45 mg/L
3,O=C(Nc1nnc(-c2ccccc2Cl)o1)c1ccco1,1.83 mg/L
4,COc1ccc(Nc2ccnc3cc4ccccc4cc23)cc1,0.74 mg/L
5,CCOC(=O)c1c(-c2ccccc2)oc2ccc(OC(=O)c3cccs3)cc12,> 50 mg/L (inactive)
6,O=C(CC(Nc1ccc(F)cc1)c1ccccc1)c1ccccc1 (configuration not stated),9.26 mg/L
7,CCOC(=O)COc1ccc2c(=O)c(-c3ccc(F)cc3)coc2c1,21.3 mg/L
8,COc1ccc(C(=S)N2CC(C)OC(C)C2)c(OC)c1 (configuration not stated),> 50 mg/L (inactive)
9,Cc1ccc([N+](=O)[O-])cc1NC(=O)Nc1cccc(Cl)c1,0.21 mg/L
10,CCn1c(Sc2ncnc3ccccc23)nc2ccccc21,2.77 mg/L
11,CN1CCN(c2cc(-c3ccccc3)nc3c(C(F)(F)F)cccc23)CC1,1.88 mg/L
12,CCOC(=O)C(Oc1ccc2oc(C)c(C(=O)OC)c2c1)c1ccccc1 (configuration not stated),2.95 mg/L
13,Cc1ccc(-c2csc(-c3ccncc3)n2)cc1C,1.85 mg/L
14,Cc1ccccc1N1C(=O)NC(=O)/C(=C\c2ccc([N+](=O)[O-])s2)C1=O,6.22 mg/L
15,Cc1ccc(OCC(=O)c2ccc(Cl)cc2)cc1C,17.6 mg/L
16,CCCCc1ccc(NC(=S)NC(=O)c2ccc(OCC)c(Cl)c2)cc1,0.34 mg/L
17,COc1ccc(-c2nnc(SCC(=O)Nc3ccc([N+](=O)[O-])cc3)o2)cc1,0.64 mg/L
18,Cc1cc(C)cc(COc2ccc3c(C)c(CCC(=O)O)c(=O)oc3c2C)c1,0.32 mg/L
19,Cc1cc(C)c2nc(NC3=NC(c4ccccc4)CC(=O)N3)nc(C)c2c1 (configuration not stated),> 50 mg/L (inactive)

row,SMILES,IC50
1,Cc1cc(C)cc(NC(=O)COc2cccc(C=O)c2)c1,3.3 mg/L
2,O=C(CC12CC3CC(CC(C3)C1)C2)NC(=S)Nc1ccc(-c2nc3ccccc3[nH]2)cc1,1.46 mg/L
3,Cc1ccc(NC(=O)COc2cccc(C=O)c2)cc1Cl,5.9 mg/L
4,COc1ccc(C(=O)Oc2ccc(C(=O)OCc3ccccc3)cc2)cc1OC,1.39 mg/L
5,FC(F)(F)c1cccc(-n2cc(-c3ccccc3)c3c(NCc4cccnc4)ncnc32)c1,1.51 mg/L
6,Cc1ccc(CNC(=S)Nc2ccc(N(C)C)cc2)cc1,5.34 mg/L
7,Cc1cc(C)nc(/N=C(\N)Nc2ccccc2Sc2ccccc2)n1,> 50 mg/L (inactive)
8,Cc1ccnc(NC(=O)COc2ccc(C(C)(C)C)cc2Br)c1,5.61 mg/L
9,O=C(CCc1nc(-c2ccc(Cl)cc2)no1)OCc1ccc(Br)cc1,> 50 mg/L (inactive)
10,CCOc1ccccc1NC(=O)CSc1nc2ccc(NC(=O)c3ccccc3Cl)cc2s1,1.25 mg/L
11,Cc1ccccc1Nc1nc(NCc2ccco2)c2ccccc2n1,2.64 mg/L
12,Cc1cc(Cl)c(OCCCNCc2ccccc2)c(Br)c1,11.3 mg/L
13,COc1ccccc1/C=C/c1nn2c(-c3ccc(C)cc3)nnc2s1,45.6 mg/L
14,COC(=O)c1ccc(/C=C/C(=O)c2cccs2)cc1,29.1 mg/L
15,O=C(Nc1ccc(Cl)cc1)Nc1ccc(F)c(F)c1,0.94 mg/L
16,Cc1cc(OC(=O)c2ccco2)c2c3c(c(=O)oc2c1)CCCC3,23.4 mg/L
17,CN1CCN(c2ccc(NC(=O)c3ccc(Cl)c(Cl)c3)cc2)CC1,> 50 mg/L (inactive)
18,O=C(Oc1ccc(Cl)c2cccnc12)c1cccc(Br)c1,10.6 mg/L
19,Cc1cc(C(C)(C)C)ccc1OCCCCn1ccnc1,1.4 mg/L

row,SMILES,IC50
1,Cc1ccc2oc(-c3cc(NC(=O)Cc4ccccc4)ccc3Cl)nc2c1,< 0.1 mg/L
2,Cc1cc(OCCCCn2ccnc2)cc(C(C)C)c1,2.03 mg/L
3,CCCCC(=O)NC(=S)Nc1ccc(N2CCN(C(=O)c3ccco3)CC2)c(Cl)c1,0.67 mg/L
4,CCCC(=O)NC(=S)Nc1cccc(C(F)(F)F)c1,2.69 mg/L
5,Cc1ccc(-c2[nH]c(-c3cc([N+](=O)[O-])ccc3O)nc2-c2ccccc2)cc1,5.58 mg/L
6,CSc1nc2nc3c(c(=O)n2[nH]1)CCCC3,2.96 mg/L
7,CCCc1cc2c(=O)c(-c3ccc4c(c3)OCCCO4)coc2cc1OCC(=O)OCC,0.3 mg/L
8,C=CCn1c(O)c(C2=c3ccccc3=NC2=O)sc1=N,< 0.1 mg/L
9,Cc1nn(-c2ccccc2)c(C)c1N1C(=O)c2cccc3cc([N+](=O)[O-])cc(c23)C1=O,0.15 mg/L
10,Cc1cc(Sc2ncnc(N)c2[N+](=O)[O-])ncn1,1.7 mg/L
11,Clc1ccc(OCc2ccccc2Cl)c(CNC2CCCCC2)c1,2.51 mg/L
12,CC(C)Oc1ccc(NC(=O)CSc2nc3ccccc3s2)cc1,6.12 mg/L
13,Cc1ccc(-c2nn(-c3cc(N4CCN(C)CC4)ccc3[N+](=O)[O-])c(=O)c3ccccc23)cc1,8.15 mg/L
14,Cc1ccc(NC(=O)CC2COc3ccccc3O2)cc1Cl (configuration not stated),1.56 mg/L
15,CC(NC(=O)c1ccc([N+](=O)[O-])o1)C12CC3CC(CC(C3)C1)C2 (configuration not stated),4.46 mg/L
16,COc1cc(/C=C/c2ccc3cccc(OC)c3n2)c(Cl)cc1OC(C)=O,35.3 mg/L
17,O=C(Oc1ccc(Cl)cc1)c1sc2ccccc2c1Cl,24.2 mg/L
18,CC1=Nc2c(ccc3cccnc23)C1(C)C,0.19 mg/L
19,CC(C)(C)c1ccc(C(=O)Nc2ccc(S(=O)(=O)Nc3nccs3)cc2)cc1Br,1.19 mg/L
